One assay concerns DLD-1 BRCA2(−/−) cells. In words: Cell growth inhibition assay (CellTiter-Glo cell viability, 7 days). In kind it is cell-based. As to conditions: Homo sapiens, 168 h. An excerpt: (§1) The objective of this study is to evaluate the effect of invention compounds on cell proliferation through the cell viability assay in DLD-1 BRCA2(−/−) and parental isogenic pair and MDA-MB-436 (mutated BRCA1) cell lines. The CellTiter-Glo (CTG) based cell viability assay is designed to determine the number of viable cells in the culture because of compound effect, by quantifying ATP, which indicates the presence of metabolically active cells.
(§2) DLD-1 BRCA2(−/−) and parental isogenic pair were cultured in RPMI 1640 supplemented with 10% fetal bovine serum (FBS), and MDA-MB-436 cells were cultured in DMEM supplemented with 10% FBS. Both are culture at 37° C. with 5% CO2. Invention compounds were distributed to the 384 well plate (Corning, 3764) using Echo acoustic liquid handler to form a 1:3 serially diluted final concentration with top dose of 10 or 30 μM. The cells were seeded into the plate in the density of 50 cells/well (DLD-1 parental), 200 cells/well (DLD-1 BRCA2−/−), or 500 cells/well (MDA-MB-436). After a short spun, the cells were cultured in a well moisturized incubator at 37° C. with 5% CO2 for 7 days without disturbance. The cell viability was measured by CellTiter Glo 2.0 assay kit (Promega, G9243), and growth inhibition rate was calculated and plotted against final compound concentration, and the data were fitted in Xfit to generate IC50.

The test system of assay [1] is MDA-MB-436 (mutated BRCA1) cells. The description is as above. In kind it is cell-based. As to conditions: Homo sapiens, 168 h, MDA-MB-436, 7 days.
From the text: as §1, §2

In another assay the target is PARP1 (Homo sapiens (Human), UniProt P09874). In words: Biochemical fluorescent polarization (FP) assay, displacement of PARPi-FL. In kind it is binding. As to conditions: 20 nM protein, 3 nM PARPi-FL, 4 h at room temperature. Here is the method:
(§3) The assay was performed utilizing the following method:
(§4) 100% DMSO was used for the high (with protein) and low (without protein) control samples. 20 nL of compound or DMSO alone was added to individual assay plate wells.
(§5) PARP1 and PARP2 protein were expressed, purified, and diluted in assay buffer containing 50 mM Tris pH 8.0, 0.001% Triton X-100, 10 mM MgCl2, 150 mM NaCl to a final concentration of 20 nM. The PARPi-FL was then added at a final concentration of 3 nM.
(§6) The assay plate is centrifuged at 1000 rpm for 1 min and incubated for 4 h at room temperature.
(§7) The fluorescent polarization is read using an Envision plate reader using the following settings: […]

Another assay concerns the target PARP2 (Homo sapiens (Human), UniProt Q9UGN5). Described as above. In kind it is binding. As to conditions: 20 nM protein, 3 nM PARPi-FL, 4 h at room temperature; read-out: IC50 FP PARP2. Here is the method: as §3, §4, §5, §6, §7

SMILES strings stand for the structures. pEC50, pIC50: −log10 of the molar value.

PARP1, sequence (P09874 whole entry): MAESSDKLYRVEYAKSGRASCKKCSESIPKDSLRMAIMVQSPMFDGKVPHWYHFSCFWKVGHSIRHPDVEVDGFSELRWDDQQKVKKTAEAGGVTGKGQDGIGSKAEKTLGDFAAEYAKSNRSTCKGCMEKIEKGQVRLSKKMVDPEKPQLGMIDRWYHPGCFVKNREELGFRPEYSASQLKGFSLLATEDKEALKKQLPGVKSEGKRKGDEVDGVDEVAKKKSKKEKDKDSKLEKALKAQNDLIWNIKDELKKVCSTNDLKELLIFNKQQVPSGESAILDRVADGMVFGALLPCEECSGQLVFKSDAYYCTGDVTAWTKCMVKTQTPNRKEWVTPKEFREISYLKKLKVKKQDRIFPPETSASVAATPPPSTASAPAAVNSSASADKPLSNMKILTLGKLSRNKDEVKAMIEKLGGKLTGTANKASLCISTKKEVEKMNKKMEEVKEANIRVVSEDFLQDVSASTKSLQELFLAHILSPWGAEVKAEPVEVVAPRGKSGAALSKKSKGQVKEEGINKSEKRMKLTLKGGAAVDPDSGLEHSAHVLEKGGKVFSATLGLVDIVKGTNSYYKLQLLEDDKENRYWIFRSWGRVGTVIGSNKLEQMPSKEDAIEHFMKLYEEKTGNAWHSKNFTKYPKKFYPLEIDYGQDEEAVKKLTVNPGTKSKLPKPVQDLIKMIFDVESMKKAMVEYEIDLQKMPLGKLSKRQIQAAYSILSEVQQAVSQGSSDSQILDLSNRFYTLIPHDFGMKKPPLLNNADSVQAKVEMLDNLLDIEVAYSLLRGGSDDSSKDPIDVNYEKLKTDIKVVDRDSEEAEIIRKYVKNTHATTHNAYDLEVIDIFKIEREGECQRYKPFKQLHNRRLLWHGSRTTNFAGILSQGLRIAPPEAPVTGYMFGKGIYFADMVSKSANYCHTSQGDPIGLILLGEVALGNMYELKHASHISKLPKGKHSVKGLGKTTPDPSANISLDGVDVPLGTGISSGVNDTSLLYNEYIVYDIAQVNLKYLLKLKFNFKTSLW
PARP2, sequence (Q9UGN5 whole entry): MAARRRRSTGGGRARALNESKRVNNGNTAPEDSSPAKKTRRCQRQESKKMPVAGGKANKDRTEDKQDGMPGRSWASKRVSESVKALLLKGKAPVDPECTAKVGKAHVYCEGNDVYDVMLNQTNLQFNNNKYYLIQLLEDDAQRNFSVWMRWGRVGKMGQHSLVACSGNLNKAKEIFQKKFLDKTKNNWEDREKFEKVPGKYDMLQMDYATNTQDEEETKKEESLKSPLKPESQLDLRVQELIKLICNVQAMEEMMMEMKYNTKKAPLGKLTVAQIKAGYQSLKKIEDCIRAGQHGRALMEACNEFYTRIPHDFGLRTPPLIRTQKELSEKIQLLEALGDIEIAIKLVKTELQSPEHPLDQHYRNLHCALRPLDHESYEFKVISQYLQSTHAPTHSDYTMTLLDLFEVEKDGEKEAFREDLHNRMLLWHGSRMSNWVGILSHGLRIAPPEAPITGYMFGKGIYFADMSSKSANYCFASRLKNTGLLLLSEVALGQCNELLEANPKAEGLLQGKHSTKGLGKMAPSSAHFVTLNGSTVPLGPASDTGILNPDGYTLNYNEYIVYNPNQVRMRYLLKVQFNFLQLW

Consider `CCc1cc2ncc([C@@H](C)N3C[C@H](Oc4ccc(C(=O)NC)nc4)[C@H]3C)cc2[nH]c1=O` (single isomer, unassigned) [Example 54, 5-{[(2R,3S)-1-[(1R*)-1-(7-ethyl-6-oxo-5H-1,5-naphthyridin-3-yl)ethyl]-2-methylazetidin-3-yl]oxy}-N-methylpyridine-2-carboxamide], for which the pEC50 – broadly, −log10 of the EC50, conventionally taken in molar units – in the assay with DLD-1 BRCA2(−/−) cells is 8.92; in assay [1] it was 9.21. In addition, the figures for the pIC50 at PARP1 and at PARP2 were 8.35 and 6.05, respectively.

As for `CCc1cc2ncc([C@H](C)N3C[C@H](Oc4ccc(C(=O)NC)nc4)[C@H]3C)cc2[nH]c1=O` (single isomer, unassigned) [Example 55, 5-{[(2R,3S)-1-[(1R*)-1-(7-ethyl-6-oxo-5H-1,5-naphthyridin-3-yl)ethyl]-2-methylazetidin-3-yl]oxy}-N-methylpyridine-2-carboxamide], the negative logarithm of the EC50 (pEC50) in the assay on DLD-1 BRCA2(−/−) cells is 7.42; in assay [1] it was 7.92. The results for the pIC50 on PARP1 and on PARP2 were 8.19 and under 4.00, respectively.

As for `Cc1cc2ncc([C@@H](C)N3C[C@H](Oc4ccc(C#N)nc4)[C@H]3C)cc2[nH]c1=O` (single isomer, unassigned) [Example 60], the pEC50 (in the assay on DLD-1 BRCA2(−/−) cells; in assay [1]) was under 6.00 throughout. Also, the pIC50 – broadly, −log10 of the IC50, conventionally taken in molar units – on PARP1 was under 7.00; on PARP2, under 4.00.

In the case of `Cc1cc2ncc([C@H](C)N3C[C@H](Oc4ccc(C#N)nc4)[C@H]3C)cc2[nH]c1=O` (single isomer, unassigned) [Example 61], the pEC50 in the assay with DLD-1 BRCA2(−/−) cells is 8.00; in assay [1] it was 8.06. The pIC50 was 7.74 at PARP1 and 4.64 on PARP2.

For `Cc1cc2ncc(CN3C[C@H](Oc4ccc(C(=O)N[C@H]5CC5(F)F)nc4)[C@H]3C)cc2[nH]c1=O` (single isomer, unassigned) [Example 89], the pEC50 was 8.74 in the assay with DLD-1 BRCA2(−/−) cells and 8.96 in assay [1]. Besides, the pIC50 on PARP1 is 8.14; on PARP2 it was 5.02.

`Cc1cc2ncc(CN3C[C@H](Oc4ccc(C(=O)N[C@@H]5CC5(F)F)nc4)[C@H]3C)cc2[nH]c1=O` (single isomer, unassigned) [Example 90]: the pEC50 is 8.55 with DLD-1 BRCA2(−/−) cells and 8.74 in assay [1]. Further, the pIC50 on PARP1 was 8.07; at PARP2 it was 5.51.

In the case of `Cc1cc2ncc(CN3CCC(Oc4ccc(C(=O)NCC(F)F)nc4)C3)cc2[nH]c1=O` (stereo in doubt) [Example 10, N-(2,2-difluoroethyl)-5-{[(3R)-1-[(7-methyl-6-oxo-5H-1,5-naphthyridin-3-yl)methyl]pyrrolidin-3-yl]oxy}pyridine-2-carboxamide], the pEC50 with DLD-1 BRCA2(−/−) cells was 8.06; in assay [1], 8.17. Also, the pIC50 on PARP1 is 8.17; on PARP2 it was under 4.00.

Consider `CNC(=O)c1ccc(O[C@@H]2CCN(Cc3cnc4cc(C5CC5)c(=O)[nH]c4c3)C2)cn1` [Example 3, 5-{[(3R)-1-[(7-cyclopropyl-6-oxo-5H-1,5-naphthyridin-3-yl)methyl]pyrrolidin-3-yl]oxy}-N-methylpyridine-2-carboxamide], for which the pEC50 in the assay with DLD-1 BRCA2(−/−) cells is 7.89; in assay [1] it was 8.35. Moreover, the pIC50 on PARP1 was 8.19; on PARP2, under 4.00.

Take `C[C@@H]1[C@@H](Oc2ccc(C(=O)NC3CC3)nc2F)CN1Cc1cnc2cc(Cl)c(=O)[nH]c2c1` [Example 105]: the pEC50 was 8.66 with DLD-1 BRCA2(−/−) cells and 9.03 in assay [1].

As for `CNC(=O)c1ccc(O[C@H]2CN(Cc3ccc4cc(Cl)c(=O)[nH]c4c3F)[C@@H]2C)cn1` [Example 106, 5-{[(2R,3S)-1-[(3-chloro-8-fluoro-2-oxo-1H-quinolin-7-yl)methyl]-2-methylazetidin-3-yl]oxy}-N-methylpyridine-2-carboxamide], the figures for the pEC50 (in the assay with DLD-1 BRCA2(−/−) cells; in assay [1]) were 8.08 and 8.30, respectively.

On to `CCc1nc2c(F)cc(CN3C[C@H](Oc4ccc(C(=O)NC)nc4)[C@H]3C)c(F)c2[nH]c1=O` [Example 107], for which the figures for the pEC50 (in the assay with DLD-1 BRCA2(−/−) cells; in assay [1]) were 7.52 and 7.77, respectively.

Take `CCc1cc2c(F)cc(CN3C[C@H](Oc4ccc(C(=O)NC)nc4)[C@H]3C)c(F)c2[nH]c1=O` [Example 108]: the pEC50 (in the assay with DLD-1 BRCA2(−/−) cells; in assay [1]) was 7.92 each time.

As for `[2H]C([2H])([2H])NC(=O)c1ccc(O[C@H]2CN(Cc3ccc4nc(CC)c(=O)[nH]c4c3F)[C@@H]2C)c(F)n1` [Example 110, 5-{[(2R,3S)-1-[(2-ethyl-5-fluoro-3-oxo-4H-quinoxalin-6-yl)methyl]-2-methylazetidin-3-yl]oxy}-6-fluoro-N-methyl-d3 pyridine-2-carboxamide], the negative-log EC50 (pEC50) in the assay on DLD-1 BRCA2(−/−) cells was 7.85; in assay [1] it was 8.03.

As to `[2H]C([2H])(c1ccc2nc(CC)c(=O)[nH]c2c1F)N1C[C@H](Oc2ccc(C(=O)NC)nc2F)[C@H]1C` [Example 111], the values for the pEC50 (with DLD-1 BRCA2(−/−) cells; in assay [1]) were 7.82 and 7.89, respectively.

Turning to `[2H]C([2H])(c1ccc2nc(CC)c(=O)[nH]c2c1F)N1C[C@H](Oc2ccc(C(=O)NC3CC3)nc2F)[C@H]1C` [Example 112], the pEC50 in the assay on DLD-1 BRCA2(−/−) cells is 8.33; in assay [1] it was 8.59.

As to `CNC(=O)c1ccc(O[C@H]2CN(Cc3ccc4c([nH]c(=O)c5ccnn54)c3F)[C@@H]2C)cn1` [Example 113, 5-{[(2R,3S)-1-({6-fluoro-4-oxo-5H-pyrazolo[1,5-a]quinoxalin-7-yl}methyl)-2-methylazetidin-3-yl]oxy}-N-methylpyridine-2-carboxamide], the negative logarithm of the EC50 (pEC50) in the assay with DLD-1 BRCA2(−/−) cells was 7.80; in assay [1], 8.06.

Consider `Cc1cc2c(=O)[nH]c3c(F)c(CN4C[C@H](Oc5ccc(C(=O)NC6CC6)nc5)[C@H]4C)ccc3n2n1` [Example 114], for which the pEC50 in the assay on DLD-1 BRCA2(−/−) cells was 8.23; in assay [1], 8.44.

`CNC(=O)c1ccc(O[C@H]2CN(Cc3ccc4c5c(c(=O)[nH]c4c3F)CCO5)[C@@H]2C)cn1` [Example 115, 5-{[(2R,3S)-1-({6-fluoro-4-oxo-2H,3H,5H-furo[3,2-c]quinolin-7-yl}methyl)-2-methylazetidin-3-yl]oxy}-N-methylpyridine-2-carboxamide]: the pEC50 (with DLD-1 BRCA2(−/−) cells; in assay [1]) was 6.77 throughout.

Regarding `C[C@@H]1[C@@H](Oc2ccc(C(=O)NC3CC3)nc2)CN1Cc1ccc2c3c(c(=O)[nH]c2c1F)CCO3` [Example 116], the pEC50 in the assay on DLD-1 BRCA2(−/−) cells is 7.89; in assay [1], 8.48.

Turning to `CCc1nc2ccc(CN3CC(Oc4ccc(C(=O)NC5CC5)nc4)C3)c(F)c2[nH]c1=O` [Example 117], the pEC50 (in the assay with DLD-1 BRCA2(−/−) cells; in assay [1]) was 7.89 each time.

As for `CCc1cc2ccc(CN3CC(Oc4ccc(C(=O)NC5CC5)nc4)C3)c(F)c2[nH]c1=O` [Example 118], the pEC50 with DLD-1 BRCA2(−/−) cells was 7.62; in assay [1] it was 7.66.

For `C[C@@H]1[C@@H](Oc2ccc(C(=O)NCC(F)F)nc2)CN1Cc1ccc2c([nH]c(=O)c3ccnn32)c1F` [Example 119], the results for the pEC50 (with DLD-1 BRCA2(−/−) cells; in assay [1]) were 8.17 and 8.36, respectively.

For the compound `C[C@@H]1[C@@H](Oc2ccc(C(=O)NCC(F)F)nc2)CN1Cc1ccc2c3c(c(=O)[nH]c2c1F)CCO3` [Example 120], the pEC50 was 7.68 in the assay on DLD-1 BRCA2(−/−) cells and 8.06 in assay [1].

For the compound `CNC(=O)c1ccc(O[C@H]2CN(Cc3ccc4c([nH]c(=O)c5c(F)cnn54)c3F)[C@@H]2C)cn1` [Example 121, 5-{[(2R,3S)-1-({3,6-difluoro-4-oxo-5H-pyrazolo[1,5-a]quinoxalin-7-yl}methyl)-2-methylazetidin-3-yl]oxy}-N-methylpyridine-2-carboxamide], the pEC50 in the assay on DLD-1 BRCA2(−/−) cells is 8.92; in assay [1], 8.74.

Source of the values: patent US11802128B2, “Azetidine and pyrrolidine PARP1 inhibitors and uses thereof” (Xinthera, Inc., priority 2021, dated 2023).
